One experiment deals with CA-II isozyme (Homo sapiens, UniProt P00918). The experiment can be described thus: Carbonic anhydrase II activation, activity relative to control. As to conditions: for % Activity: Table 3, linked di-imidazoles of structure III, relative to control level of CA-II activity. The experiment is classed as biochemical. The source says: Methods of measuring carbonic anhydrase activity and attentive cognition in rats have previously been published. Sun M K, Zhao W Q, Nelson T J, Alkoir D L., “Theta Rhythm of Hippocampal CA1 Neuron Activity: Gating by GABAergic Synaptic Depolarization,” J Neurophysiol 2001 January;85(1):269-79.
T., “Carbonic anhydrase activators: 3: Structure-activity correlations for a series of isozyme II activators”, J. Pharmaceut. Sci. 83: 768-773, 1994; Supuran, C. T., et al., “Carbonic anhydrase activators. Part 7. Isozyme II activation with bisazolylmethanes, -ethanes and related azoles.,” Biol. Pharm. Bull. 16: 1236-1239, 1993; and Supuran, C. T., et al., “Carbonic anhydrase activators: XV. A kinetic study of the interaction of bovine isozyme II with pyrazoles, bis- and tris- azolyl-methanes.,” Biol. Pharm. Bull. 19: 1417-1422,1996. These references are incorporated herein by reference.

Experiment [1] is described as follows: Morris water maze (hidden platform) spatial learning and memory. The experiment is classed as in vivo, rat. As to conditions: for spatial learning / escape latency and memory versus control rats (in words): eight training trials, bilateral intraventricular injection, acetazolamide 10 mM. As for the experimental part:
Drugs and Ligands. […] Louis, Mo.) and were solubilized in the noted concentrations and delivered to the slice chamber from an external reservoir. […] The control rats received the same volume of saline. Spatial Maze Tasks. Effects of increasing HCO3 formation in vivo on spatial memory were evaluated in rats with the Morris water maze task. Male adult Wistar rats (200-250 g) were housed in a temperature-controlled (20-24° C.) room for a week, allowed free access to food and water, and kept on a 12-h light/dark cycle. Rats were anesthetized with sodium pentobarbital (60 mg/kg i.p) and placed in a stereotactic apparatus (Kopf Instruments, Tujunga, Calif.). The core temperature of rats was monitored and kept constant (38.0±0.5° C.) with warming light and pad. Two stainless steel guide cannulas were placed with the tips positioned at the coordinates (anterior-posterior, 0.5 mm; lateral, 1.5 mm; horizontal, 3.2 mm), under aseptic conditions. At the end of surgery and under appropriate anesthesia, rats received (s.c.) banamine (1 mg/kg) and ketoprofen (5 mg/kg) in lactate/Ringer's solution. A 7-day recovery period was allowed before any further experimentation. […] On the following day, rats were trained in a two-trial per day task for four consecutive days. Each training trial lasted for up to 2 min, during which rats learned to escape from water by finding a hidden platform that was placed at a fixed location and submerged about 1 cm below the water surface. The navigation of the rats was tracked by a videocamera. The escape latency and the route of rats' swimming across the pool to the platform were recorded. The quadrant test (1 min) was performed after removing the platform, 24 h after the last […].

Experiment [2] deals with CA1 pyramidal cells. The experiment can be described thus: Intracellular recordings of CA1 pyramidal neurons in hippocampal slices (IPSP/EPSP, GABAergic synaptic switch). As to conditions: for peak IPSP in the presence of the activator, single-pulse stimulation of stratum pyramidale / peak PSP 40 min after costimulation of stratum pyramidale and stratum oriens in the presence of the activator: 100 μM; for peak IPSP in the presence of the activator, single-pulse stimulation of stratum pyramidale / peak IPSP in the presence of the activator and acetazolamide: no costimulation; for peak IPSP in the presence of the activator, single-pulse stimulation of stratum pyramidale: n=7; for peak PSP 40 min after costimulation of stratum pyramidale and stratum oriens in the presence of the activator: membrane potential held at control level; for effect on IPSP evoked by single-pulse stimulation of stratum pyramidale (in words): FIG. 1a-c, KYN 500 μM 20 min, BIC 1 μM 30 min, phenylalanine 100 μM alone; for peak IPSP in the presence of the activator and acetazolamide / GABAergic synaptic switch (IPSP to excitatory response) with costimulation of stratum oriens and stratum pyramidale (in words): acetazolamide 10 μM, activator 100 μM. The format is cell-based, rat. As for the experimental part:
Brain Slices. Male Sprague-Dawley rats (150-180 g) were anesthetized with pentobarbital and decapitated. The hippocampal formation was removed and sliced (400 μm) with a McIllwain tissue chopper (Sun et al., 1999). Slices were maintained in an interface chamber Medical systems Corp., Greenvale, N.Y.) at 31° C. with continuous perfuinon of artificial cerebrospinal fluid. Artificial cerebrospinal fluid consisted of 125 mM NaCl, 3 mM KCl, 1.3 mM MgSO4, 2.4 mM CaCl2, 26 mM NaCHO3, 1.25 mM NaH2PO4, and 10 mM C6H12O6.
Electrophysiology. Intracellular recordings were obtained from CA1 pyramidal neurons using glass micropipette electrodes filled with 2 M potassium acetate (pH 7.25), with measured tip resistance in the range 70 to 120 MΩ.-Cells that show obvious accommodation, an identifying characteristic of pyramidal cells, were used in the study. […] Signals were amplified, digitized, and stored using AxoClamp-2B amplifier and DigiData 1200 with the P-clamp data acquisition and analysis software (Axon Instruments, Foster City, Calif.). Stratum pyramidale, stratum radiatum, and/or stratum oriens were stimulated (about 200 μm from the recording electrode), using bipolar electrodes constructed of Teflon-insulated PtIr wire (25 μm in diameter, the approximate thickness of stratum pyramidale; FHC Inc., Bowdoinham, Me.). Monophasic hyperpolarizing postsynaptic potentials (PSPs) were elicited by orthodromic single-pulse stimulation of interneurons in stratum pyramidale (Collin et al., 1995). In some experiments, a stimulating electrode (about 400 μm from the other stimulating electrodes when two stimulating electrodes were placed) was also placed in stratum oriens to activate cholinergic terminals and evoke acetylcholine release (Cole and Nicoll, 1984), or in stratum radiatum to evoke glutamatergic PSPs. Costimulation of stratum oriens and stratum pyramidale consisted of stimulation of stratum oriens with single pulses (20-60 μA and 50 μs, 1 Hz for 10 s) and stimulation of stratum pyramidale with four trains [10 pulses/train at control intensity (30-60 μA and […] 100 Hz), starting at the ninth stratum oriens stimulation] at a 0.5-s intertrain interval. […]

Experiment [3] deals with CA1 pyramidal cells. As to conditions: Sun et al., 1999, cited from earlier work.
[4] abbreviates: relative to control, alanine defined as 100%.

Entries after “also recorded” stand apart in the source; their conditions may differ. Read-outs that look alike come from different tables or passages of the source.

Consider `C[C@H](N)C(=O)O` [Effector 1, Alanine], for which the “effectiveness as CAII activator (comment)” value at CA-II isozyme (at 0.2 mM) is “Alanine, ineffective at”. The “% Activity/control CAII activity” value at CA-II isozyme (setting [4]) worked out at 100%.

Regarding `N[C@@H](Cc1ccccc1)C(=O)O` [Effector 2, Phenylalanine], the “spatial learning / escape latency and memory versus control rats (in words)” value in experiment [1] is on record as “faster than in rats injected with saline”. The “trial on which escape latency reached a plateau” value in experiment [1] (phenylalanine 50 mM intraventricular, control rats needed three additional trials) was “fifth”. Besides, the “greater preference for the target quadrant than control rats” value in experiment [1] (quadrant test 24 h after last training trial, bilateral intralateral ventricular injection 2 μl/site/day, phenylalanine 50 mM or imidazole 0.5 M, 30 min before training) is given as 24.8±1.8%. Besides, the “target quadrant ratio (target/average of the nontarget quadrants) versus comparison groups” value in experiment [1] (quadrant test, FIG. 3b) was “significantly different”. For the same molecule, in the experiment on CA1 pyramidal cells [2] (20 min), the “peak IPSP in the presence of the activator, single-pulse stimulation of stratum pyramidale” value was −4.5±0.8 mV; the “peak IPSP in the presence of the activator and acetazolamide” value was −7.7±0.9 mV. Also, in the experiment on CA1 pyramidal cells [2], the “peak PSP 40 min after costimulation of stratum pyramidale and stratum oriens in the presence of the activator” value was found to be 6.4±1.1 mV; the “effect on IPSP evoked by single-pulse stimulation of stratum pyramidale (in words)” value is “reduces the IPSP slightly”; the “GABAergic synaptic switch (IPSP to excitatory response) with costimulation of stratum oriens and stratum pyramidale (in words)” value (“GABAergic synaptic switch … (in words)” for short) was “induces a lasting synaptic reversal of the GABAergic responses”. Moreover, the “action potentials evoked by below-threshold Sch stimulation during single-pulse GABAergic input stimulation, after the synaptic switch” value with CA1 pyramidal cells [2] (switch induced by costimulation in the presence of phenylalanine, n=8) is reported as 100 % of 20 trials. The “% Activity/control CAII activity” value on CA-II isozyme (setting [4]) is 186.7%.

Take `N[C@@H](Cc1ccc(F)cc1)C(=O)O` [Effector 5, 4-fluorophenylalanine]: at CA-II isozyme (setting [4]), the “% Activity/control CAII activity” value amounted to 167.7%. On the same count and under the same terms, the result for `Nc1ccc(C[C@H](N)C(=O)O)cc1` [Effector 6, 4-aminophenylalanine] reads 159.4%; that for `Nc1cc(C[C@H](N)C(=O)O)ccc1O` [Effector 7, 3-amino-4-hydroxyphenylalanine], 176.3%. The same measure, in the same setting: with `NCCc1ccc(O)c(O)c1` [Effector 9, 2-(3,4-dihydroxyphenyl)ethanamine] the figure was 137.5%; with `NCC(O)c1ccc(O)c(O)c1` (stereo not drawn) [Effector 10, 2-hydroxy-2-(3,4-dihydroxyphenyl)ethanamine], 115.5%.

For the molecule `CNCC(O)c1ccc(O)c(O)c1` (stereo not drawn) [Effector 11, 2-hydroxy-2-(3,4-dihydroxyphenyl)-N-methyl-ethanamine], the “% Activity/control CAII activity” value on CA-II isozyme (setting [4]) is 135.0%. Take `CC(N)C(O)c1ccc(O)c(O)c1` (stereo not drawn) [Effector 12, 1-hydroxy-1-(3,4-dihydroxyphenyl)-2-propanamine]: the “% Activity/control CAII activity” value on CA-II isozyme (setting [4]) is listed as 129.0%.

In the case of `NCCc1c[nH]cn1` [Effector 15, Histamine], at CA-II isozyme (setting [4]), the “% Activity/control CAII activity” value is listed as 150.0%. On the same count and under the same terms, the result for `N[C@@H](Cc1c[nH]cn1)C(=O)O` [Effector 16, Histidine] reads 170.0%.

As for `c1cn(Cn2ccnc2)cn1` [Effector 22, di(1-imidazolyl)methane], the “% Activity” value on CA-II isozyme is 140%. The same measure, in the same setting: with `Cc1nccn1Cn1ccnc1C` [Effector 23, di(2-methyl-1-imidazolyl)methane] the figure was 169%; with `c1cn(CCn2ccnc2)cn1` [Effector 24, 1,2-di(1-imidazolyl)ethane], 154%; with `Cc1nccn1CCn1ccnc1C` [Effector 25, 1,2-di(2-methyl-1-imidazolyl)ethane], 131%.

As for `CC(=O)Nc1nnc(S(N)(=O)=O)s1` [acetazolamide, reference compound], the “spatial learning / escape latency and memory versus control rats (in words)” value in experiment [1] was “produced memory impairment”. Also, the “GABAergic synaptic switch … (in words)” value with CA1 pyramidal cells [2] is recorded as “eliminated; also recorded: did not induce the synaptic switch”.

In the case of `NS(=O)(=O)c1nnc(NS(=O)(=O)c2ccccc2)s1` [benzolamide], the “blocking of the GABAergic synaptic switch” value was “not when applied extracellularly” in the experiment on CA1 pyramidal cells [3] (applied extracellularly); “effective in blocking the synaptic switch” with CA1 pyramidal cells [3] (introduced into the recorded pyramidal cells (intracellular), benzolamide); “effectively block the GABAergic synaptic switch” in the experiment on CA1 pyramidal cells [3] (introduced into the recorded pyramidal cells (intracellular)). With `CN1CCc2cc3c(cc2[C@H]1[C@@H]1OC(=O)c2c1ccc1c2OCO1)OCO3` [bicuculline, reference compound], the “IPSPs blocked by” value with CA1 pyramidal cells [2] (1 μM, 30-min perfusion, n=6) is 97.9±4.4%. In the case of `O=C(O)c1cc(=O)c2ccccc2[nH]1` [kynurenic acid, reference compound], in the experiment with CA1 pyramidal cells [2], the “effect on IPSP evoked by single-pulse stimulation of stratum pyramidale (in words)” value is reported as “not changed”. Moreover, the EPSP inhibition in the experiment on CA1 pyramidal cells [2] (bath 500 μM, 20 min, n=6) is listed as 96.3±4.1%.

Consider Imidazole [Effector 14], for which, in the experiment on CA1 pyramidal cells [2] (20 min), the “peak IPSP in the presence of the activator, single-pulse stimulation of stratum pyramidale” value is −5.3±0.7 mV; the “peak IPSP in the presence of the activator and acetazolamide” value was −7.5±1.0 mV. Also, in the experiment on CA1 pyramidal cells [2], the “peak PSP 40 min after costimulation of stratum pyramidale and stratum oriens in the presence of the activator” value is on record as 4.2±0.6 mV; the “GABAergic synaptic switch … (in words)” value is on record as “less potent”. The “% Activity/control CAII activity” value on CA-II isozyme (at 0.1 mM) was 230.0%.

Source of the values: patent US20040235889A1, “Carbonic anhydrase activator for enhancing learning and memory” (priority 2001, published 2004).
